Molecular target: T1, bovine cardiac myofibrils (Bos taurus, UniProt Q9BE39)
T1 construct: full-length cardiac myosin in the context of the native sarcomere; from tissue; host or cells: bovine cardiac left ventricular tissue, homogenized with detergent (triton X-100)
Test: Skinned bovine cardiac myofibril ATPase assay (PK/LDH-coupled)
Assay type: biochemical
Settings: inhibition of steady-state ATPase activity of bovine cardiac myofibrils, calcium at 75% activation (pCa75), PM12 buffer pH 6.8; for IC50: read-out: CDMF75 IC50
Description: To evaluate the effect of compounds on the ATPase activity of full-length cardiac myosin in the context of the native sarcomere, skinned myofibril assays were performed. Bovine cardiac myofibrils were obtained by homogenizing bovine cardiac left ventricular tissue in the presence of a detergent such as triton X-100. Such treatment removes membranes and a majority of the soluble cytoplasmic proteins but leaves intact the cardiac sarcomeric acto-myosin apparatus. Myofibril preparations retain the ability to hydrolyze ATP in an Ca^2+ regulated manner ATPase activities of such myofibril preparations in the presence and absence of compounds were assayed at Ca^2+ concentrations activating to a defined fraction of the maximal rate (i.e., 25%, 75%). Small molecule agents were assessed for their ability to inhibit the steady-state ATPase activity of bovine cardiac myofibrils using pyruvate kinase and lactate dehydrogenase (PK/LDH)-coupled enzyme system. This assay regenerates myosin-produced ADP into ATP by oxidizing NADH, producing an absorbance change at 340 nm. Prior to testing small molecule agents, the bovine cardiac myofibrils were assessed for their calcium responsiveness and the calcium concentration that achieves either a 50% (pCa50) or 75% (pCa75) activation of the myofibril system was chosen as the final condition for assessing the inhibitory activity of the small molecule agents. All enzymatic activity was measured in a buffered solution containing 12 mM PIPES (piperazine-N,N′-bis(2-ethanesulfonic acid), 2 mM magnesium chloride at pH 6.8 (PM 12 buffer). Final assay conditions were 1 mg/mL of bovine cardiac myofibrils, 4 U/mL pyruvate kinase, 6 U/mL lactate dehydrogenase, 50 μM ATP, 0.1 mg/mL BSA (bovine serum albumin), 10 ppm antifoam, 1 mM DTT, 0.5 mM NADH, 1.5 mM PEP, 0.6 mM EGTA, and an amount of CaCl2) sufficient to achieve either 50% or 75% activation of the myofibril ATPase activity. Results for compounds tested are provided in Table A. Compounds tested were prepared in accordance with the synthetic procedures described herein.

T1 sequence (Q9BE39 whole entry): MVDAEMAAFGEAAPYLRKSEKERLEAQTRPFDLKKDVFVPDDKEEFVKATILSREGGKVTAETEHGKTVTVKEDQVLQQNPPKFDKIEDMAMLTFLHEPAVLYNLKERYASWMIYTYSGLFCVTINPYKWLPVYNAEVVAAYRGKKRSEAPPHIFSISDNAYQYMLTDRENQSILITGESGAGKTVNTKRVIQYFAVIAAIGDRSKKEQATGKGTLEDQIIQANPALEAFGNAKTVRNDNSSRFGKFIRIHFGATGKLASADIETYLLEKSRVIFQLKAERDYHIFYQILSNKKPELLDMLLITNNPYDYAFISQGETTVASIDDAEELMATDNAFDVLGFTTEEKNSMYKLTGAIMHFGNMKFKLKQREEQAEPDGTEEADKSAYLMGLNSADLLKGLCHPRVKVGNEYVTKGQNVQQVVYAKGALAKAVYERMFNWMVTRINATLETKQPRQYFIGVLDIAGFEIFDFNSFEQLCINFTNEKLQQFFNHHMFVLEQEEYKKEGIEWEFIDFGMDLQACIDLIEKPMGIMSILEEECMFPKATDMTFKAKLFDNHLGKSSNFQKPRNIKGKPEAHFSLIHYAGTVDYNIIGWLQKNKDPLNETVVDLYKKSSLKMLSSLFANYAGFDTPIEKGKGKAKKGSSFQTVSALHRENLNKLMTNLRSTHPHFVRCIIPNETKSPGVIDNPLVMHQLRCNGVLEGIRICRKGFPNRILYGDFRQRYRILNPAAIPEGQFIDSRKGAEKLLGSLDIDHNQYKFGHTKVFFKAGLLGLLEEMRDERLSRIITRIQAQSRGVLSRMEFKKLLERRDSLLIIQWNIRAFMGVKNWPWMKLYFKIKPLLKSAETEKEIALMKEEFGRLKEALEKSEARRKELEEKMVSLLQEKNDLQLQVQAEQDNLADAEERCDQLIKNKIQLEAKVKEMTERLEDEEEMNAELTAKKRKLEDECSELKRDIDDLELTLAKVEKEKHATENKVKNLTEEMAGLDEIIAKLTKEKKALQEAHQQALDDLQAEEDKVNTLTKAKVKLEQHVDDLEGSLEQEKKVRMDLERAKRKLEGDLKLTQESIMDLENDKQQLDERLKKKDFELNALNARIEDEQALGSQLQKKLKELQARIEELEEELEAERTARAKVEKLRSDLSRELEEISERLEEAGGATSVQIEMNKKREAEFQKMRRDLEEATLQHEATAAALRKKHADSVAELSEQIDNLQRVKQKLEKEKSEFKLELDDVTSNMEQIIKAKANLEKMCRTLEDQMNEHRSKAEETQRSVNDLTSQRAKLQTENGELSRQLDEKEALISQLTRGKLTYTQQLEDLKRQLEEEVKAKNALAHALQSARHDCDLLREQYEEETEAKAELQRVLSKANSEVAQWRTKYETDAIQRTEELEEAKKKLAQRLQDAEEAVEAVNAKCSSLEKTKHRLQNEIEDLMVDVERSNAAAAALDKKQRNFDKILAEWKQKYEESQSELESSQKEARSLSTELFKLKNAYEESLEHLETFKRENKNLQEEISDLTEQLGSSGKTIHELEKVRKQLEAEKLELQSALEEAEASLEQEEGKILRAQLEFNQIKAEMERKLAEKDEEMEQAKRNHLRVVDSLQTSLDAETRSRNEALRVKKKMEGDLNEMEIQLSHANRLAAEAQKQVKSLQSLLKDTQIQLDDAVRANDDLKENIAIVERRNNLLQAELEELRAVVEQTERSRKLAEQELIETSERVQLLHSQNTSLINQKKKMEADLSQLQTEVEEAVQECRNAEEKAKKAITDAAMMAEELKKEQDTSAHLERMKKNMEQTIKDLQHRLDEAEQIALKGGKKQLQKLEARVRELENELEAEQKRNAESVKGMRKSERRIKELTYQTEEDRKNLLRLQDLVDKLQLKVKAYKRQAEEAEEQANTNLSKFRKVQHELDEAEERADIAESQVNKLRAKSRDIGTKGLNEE
T1 sequence (P85100 whole entry partner): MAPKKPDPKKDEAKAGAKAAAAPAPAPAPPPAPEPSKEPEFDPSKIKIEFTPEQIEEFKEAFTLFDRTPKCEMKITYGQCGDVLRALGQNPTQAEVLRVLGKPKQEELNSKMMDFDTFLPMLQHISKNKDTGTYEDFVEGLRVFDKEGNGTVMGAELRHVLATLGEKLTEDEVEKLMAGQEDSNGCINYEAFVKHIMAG
T1 sequence (Q3SZE5 whole entry partner): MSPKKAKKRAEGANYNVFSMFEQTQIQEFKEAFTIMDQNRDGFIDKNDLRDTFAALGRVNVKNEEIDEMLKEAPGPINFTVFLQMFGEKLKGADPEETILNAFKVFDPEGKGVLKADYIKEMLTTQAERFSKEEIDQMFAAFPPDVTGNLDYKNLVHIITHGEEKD

Row | CDMF75 IC15 | IC50 | Structure (SMILES)
1 | 1.6 µM | 5.5 µM | CCc1nc(-c2ccc3c(c2)CCC3C(=O)Nc2ccnc(C)c2)no1 (racemic) [Compound 2, 5-(5-ethyl-1,2,4-oxadiazol-3-yl)-N-(2-methylpyridin-4-yl)-2,3-dihydro-1H-indene-1-carboxamide]
2 | >39.2 µM | > 39.2 µM | CCc1nc(-c2ccc3c(c2)CCC3C(=O)Nc2ccnn2C)no1 (racemic) [Compound 5, 5-(5-ethyl-1,2,4-oxadiazol-3-yl)-N-(1-methyl-1H-pyrazol-5-yl)-2,3-dihydro-1H-indene-1-carboxamide]
3 | 1.3 µM | 6.1 µM | CCc1nc(-c2ccc3c(c2)CCC3C(=O)Nc2ccccc2)no1 (racemic) [Compound 8, 5-(5-ethyl-1,2,4-oxadiazol-3-yl)-N-phenyl-2,3-dihydro-1H-indene-1-carboxamide]
4 | >39.2 µM | > 39.2 µM | CCNC(=O)C1CCc2cc(-c3noc(CC)n3)ccc21 (racemic) [Compound 11, N-ethyl-5-(5-ethyl-1,2,4-oxadiazol-3-yl)-2,3-dihydro-1H-indene-1-carboxamide]
5 | 4.4 µM | 23.1 µM | Cc1cc(NC(=O)C2CCc3cc(-c4noc(C(F)F)n4)ccc32)ccn1 (racemic) [Compound 14, 5-(5-(difluoromethyl)-1,2,4-oxadiazol-3-yl)-N-(2-methylpyridin-4-yl)-2,3-dihydro-1H-indene-1-carboxamide]
6 | 6.0 µM | 33.4 µM | Cc1cc(NC(=O)C2CCc3cc(-c4noc(C)n4)ccc32)ccn1 (racemic) [Compound 17, 5-(5-methyl-1,2,4-oxadiazol-3-yl)-N-(2-methylpyridin-4-yl)-2,3-dihydro-1H-indene-1-carboxamide]
7 | 2.6 µM | 13.9 µM | Cc1cc(NC(=O)C2CCc3cc(-c4noc(C5CC5)n4)ccc32)ccn1 (racemic) [Compound 20, 5-(5-cyclopropyl-1,2,4-oxadiazol-3-yl)-N-(2-methylpyridin-4-yl)-2,3-dihydro-1H-indene-1-carboxamide]
8 | 5.6 µM | 29 µM | Cc1cc(NC(=O)C2CCc3cc(-c4noc(C(C)C)n4)ccc32)ccn1 (racemic) [Compound 23, 5-(5-isopropyl-1,2,4-oxadiazol-3-yl)-N-(2-methylpyridin-4-yl)-2,3-dihydro-1H-indene-1-carboxamide]
9 | 0.8 µM | 3 µM | CCc1nc(-c2ccc3c(c2)CCC32COC(=O)N2)no1 (racemic) [Compound 26, 5-(5-ethyl-1,2,4-oxadiazol-3-yl)-2,3-dihydrospiro[indene-1,4′-oxazolidin]-2′-one]
10 | 4.2 µM | 18.4 µM | Cc1nc(-c2ccc3c(c2)CCC32COC(=O)N2)no1 (racemic) [Compound 29, 5-(5-methyl-1,2,4-oxadiazol-3-yl)-2,3-dihydrospiro[indene-1,4′-oxazolidin]-2′-one]
11 | 2.7 µM | 11.4 µM | CC(C)c1nc(-c2ccc3c(c2)CCC32COC(=O)N2)no1 (racemic) [Compound 32, 5-(5-isopropyl-1,2,4-oxadiazol-3-yl)-2,3-dihydrospiro[indene-1,4′-oxazolidin]-2′-one]
12 | 1.5 µM | 5.8 µM | O=C1NC2(CCc3cc(-c4noc(C5CC5)n4)ccc32)CO1 (racemic) [Compound 35, 5-(5-cyclopropyl-1,2,4-oxadiazol-3-yl)-2,3-dihydrospiro[indene-1,4′-oxazolidin]-2′-one]
13 | 2.5 µM | 14.1 µM | O=C1NC2(CCc3cc(-c4noc(C(F)F)n4)ccc32)CO1 (racemic) [Compound 38, 5-(5-(difluoromethyl)-1,2,4-oxadiazol-3-yl)-2,3-dihydrospiro[indene-1,4′-oxazolidin]-2′-one]
14 | 0.6 µM | 2.2 µM | CCc1nc(-c2ccc3c(c2)OCC32COC(=O)N2)no1 (racemic) [Compound 41, 6-(5-ethyl-1,2,4-oxadiazol-3-yl)-2H-spiro[benzofuran-3,4′-oxazolidin]-2′-one]

Reference: patent US11964967B2, “Cardiac sarcomere inhibitors” (Cytokinetics, Inc., priority 2018, dated 2024)
